Measurements: ChEMBL document CHEMBL4765443, “Covalent and noncovalent constraints yield a figure eight-like conformation of a peptide inhibiting the menin-MLL interaction” (Eur J Med Chem, 2020)
Starred links: 1 amine or outer side, 2 acyl side, 3 side chain; linkers in the order of their positions; H or OH if unused. Positions of bridges follow the written chain, without caps; N, C: chain ends. Non-standard residues stand in square brackets, D forms with d. Residues, ends and D or L forms follow the SMILES beside them. Hag = O=C([C@H](CCC=[*:3])N[*:1])[*:2]; Phe(3-F) = N[C@@H](Cc1cccc(F)c1)C(=O)O; AllylGly = C=CC[C@H](N)C(=O)O; Orn = NCCC[C@H](N)C(=O)O; Ac4c = NC1(C(=O)O)CCC1

biological target: T1, Menin/Histone-lysine N-methyltransferase MLL (Homo sapiens, UniProt O00255); assay: Inhibition of Menin-MLL protein-protein interaction (unknown origin) preincubated for 1 hr in presence of FLSN-MLL4-43 peptide followed by compound addition and measured after 1 hr by fluorescence polarization assay
T1 sequence (O00255 whole entry): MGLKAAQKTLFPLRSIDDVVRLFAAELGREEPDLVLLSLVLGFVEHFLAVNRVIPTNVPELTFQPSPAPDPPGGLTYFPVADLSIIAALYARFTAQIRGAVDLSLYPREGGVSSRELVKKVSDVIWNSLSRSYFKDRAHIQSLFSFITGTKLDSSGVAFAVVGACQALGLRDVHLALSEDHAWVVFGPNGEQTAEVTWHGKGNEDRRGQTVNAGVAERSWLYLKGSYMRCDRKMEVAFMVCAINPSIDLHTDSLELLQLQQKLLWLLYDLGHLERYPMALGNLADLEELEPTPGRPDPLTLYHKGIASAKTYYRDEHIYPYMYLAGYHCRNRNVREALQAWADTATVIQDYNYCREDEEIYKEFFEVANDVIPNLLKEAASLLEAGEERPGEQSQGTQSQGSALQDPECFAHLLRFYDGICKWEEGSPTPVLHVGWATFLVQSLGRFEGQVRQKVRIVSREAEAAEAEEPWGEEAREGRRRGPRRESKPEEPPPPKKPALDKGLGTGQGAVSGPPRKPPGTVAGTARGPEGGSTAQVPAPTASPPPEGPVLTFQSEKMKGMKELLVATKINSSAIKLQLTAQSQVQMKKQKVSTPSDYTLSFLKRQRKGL
T1 sequence (Q03164 1-2718 partner limits assumed): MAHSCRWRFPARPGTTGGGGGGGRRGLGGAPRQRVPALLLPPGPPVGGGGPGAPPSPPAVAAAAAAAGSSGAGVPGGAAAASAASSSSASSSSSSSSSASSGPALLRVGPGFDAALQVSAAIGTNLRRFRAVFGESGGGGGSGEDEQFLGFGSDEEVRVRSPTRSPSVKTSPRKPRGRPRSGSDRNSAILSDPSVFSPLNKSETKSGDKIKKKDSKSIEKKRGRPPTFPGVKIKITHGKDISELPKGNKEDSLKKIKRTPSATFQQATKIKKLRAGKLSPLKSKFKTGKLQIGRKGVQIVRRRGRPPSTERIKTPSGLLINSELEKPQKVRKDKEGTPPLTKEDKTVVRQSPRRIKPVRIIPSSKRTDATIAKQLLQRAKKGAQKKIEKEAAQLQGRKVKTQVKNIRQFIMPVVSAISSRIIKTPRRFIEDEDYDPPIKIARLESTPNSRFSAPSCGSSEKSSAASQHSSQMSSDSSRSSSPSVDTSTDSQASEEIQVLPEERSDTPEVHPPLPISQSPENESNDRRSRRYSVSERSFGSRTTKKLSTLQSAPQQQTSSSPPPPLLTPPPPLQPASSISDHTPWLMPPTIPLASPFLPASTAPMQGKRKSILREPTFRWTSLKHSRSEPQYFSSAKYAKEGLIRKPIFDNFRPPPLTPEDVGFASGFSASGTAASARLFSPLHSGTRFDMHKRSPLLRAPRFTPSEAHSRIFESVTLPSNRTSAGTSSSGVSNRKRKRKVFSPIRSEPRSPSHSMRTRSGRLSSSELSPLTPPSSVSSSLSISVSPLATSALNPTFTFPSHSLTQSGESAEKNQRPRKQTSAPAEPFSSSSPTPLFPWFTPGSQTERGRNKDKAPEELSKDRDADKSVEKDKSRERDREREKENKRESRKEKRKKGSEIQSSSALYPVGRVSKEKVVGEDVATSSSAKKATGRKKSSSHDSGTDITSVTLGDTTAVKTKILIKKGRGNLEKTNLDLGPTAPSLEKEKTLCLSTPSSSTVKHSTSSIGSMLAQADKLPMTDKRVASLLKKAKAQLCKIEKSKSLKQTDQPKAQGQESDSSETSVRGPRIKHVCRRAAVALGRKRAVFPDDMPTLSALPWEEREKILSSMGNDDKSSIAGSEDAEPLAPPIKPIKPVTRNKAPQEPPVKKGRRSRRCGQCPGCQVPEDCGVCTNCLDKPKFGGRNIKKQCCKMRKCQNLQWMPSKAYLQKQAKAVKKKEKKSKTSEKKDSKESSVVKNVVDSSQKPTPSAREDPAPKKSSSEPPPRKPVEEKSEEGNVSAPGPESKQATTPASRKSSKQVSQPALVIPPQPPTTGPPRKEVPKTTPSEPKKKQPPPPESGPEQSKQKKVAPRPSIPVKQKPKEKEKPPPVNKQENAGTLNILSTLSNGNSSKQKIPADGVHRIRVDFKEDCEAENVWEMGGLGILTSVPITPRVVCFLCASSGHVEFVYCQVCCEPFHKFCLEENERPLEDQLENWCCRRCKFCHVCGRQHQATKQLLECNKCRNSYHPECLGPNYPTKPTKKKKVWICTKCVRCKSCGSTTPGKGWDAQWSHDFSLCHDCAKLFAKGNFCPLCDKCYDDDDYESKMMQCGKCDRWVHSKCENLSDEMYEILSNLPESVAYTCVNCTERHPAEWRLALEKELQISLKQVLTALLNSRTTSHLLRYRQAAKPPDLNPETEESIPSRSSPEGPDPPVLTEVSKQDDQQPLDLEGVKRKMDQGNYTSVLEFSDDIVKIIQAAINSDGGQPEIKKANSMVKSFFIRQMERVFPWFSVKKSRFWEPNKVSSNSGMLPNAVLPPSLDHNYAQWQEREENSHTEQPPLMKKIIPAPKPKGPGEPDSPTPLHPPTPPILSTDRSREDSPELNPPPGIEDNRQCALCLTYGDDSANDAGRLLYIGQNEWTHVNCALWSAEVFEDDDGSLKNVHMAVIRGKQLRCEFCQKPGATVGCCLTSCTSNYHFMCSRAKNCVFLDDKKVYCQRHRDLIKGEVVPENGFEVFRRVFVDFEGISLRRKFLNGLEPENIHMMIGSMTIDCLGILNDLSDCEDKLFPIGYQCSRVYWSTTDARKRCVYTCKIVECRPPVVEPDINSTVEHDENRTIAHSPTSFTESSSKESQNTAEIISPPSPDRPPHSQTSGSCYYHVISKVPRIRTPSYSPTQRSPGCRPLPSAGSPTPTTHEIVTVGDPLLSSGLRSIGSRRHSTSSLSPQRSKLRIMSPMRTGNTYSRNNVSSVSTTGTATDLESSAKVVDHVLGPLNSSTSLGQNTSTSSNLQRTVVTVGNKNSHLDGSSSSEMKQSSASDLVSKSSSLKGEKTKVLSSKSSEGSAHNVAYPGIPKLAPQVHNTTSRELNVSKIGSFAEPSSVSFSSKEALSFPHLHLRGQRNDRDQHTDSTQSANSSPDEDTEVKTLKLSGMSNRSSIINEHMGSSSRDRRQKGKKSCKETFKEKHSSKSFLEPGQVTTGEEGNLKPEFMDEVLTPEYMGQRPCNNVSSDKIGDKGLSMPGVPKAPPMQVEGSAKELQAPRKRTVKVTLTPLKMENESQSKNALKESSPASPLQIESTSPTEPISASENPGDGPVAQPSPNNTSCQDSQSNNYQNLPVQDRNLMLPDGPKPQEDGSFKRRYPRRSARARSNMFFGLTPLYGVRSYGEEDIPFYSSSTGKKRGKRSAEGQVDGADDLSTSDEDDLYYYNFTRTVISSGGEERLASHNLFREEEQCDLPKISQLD
T1 sequence (Q03164 2719-3969 partner limits assumed): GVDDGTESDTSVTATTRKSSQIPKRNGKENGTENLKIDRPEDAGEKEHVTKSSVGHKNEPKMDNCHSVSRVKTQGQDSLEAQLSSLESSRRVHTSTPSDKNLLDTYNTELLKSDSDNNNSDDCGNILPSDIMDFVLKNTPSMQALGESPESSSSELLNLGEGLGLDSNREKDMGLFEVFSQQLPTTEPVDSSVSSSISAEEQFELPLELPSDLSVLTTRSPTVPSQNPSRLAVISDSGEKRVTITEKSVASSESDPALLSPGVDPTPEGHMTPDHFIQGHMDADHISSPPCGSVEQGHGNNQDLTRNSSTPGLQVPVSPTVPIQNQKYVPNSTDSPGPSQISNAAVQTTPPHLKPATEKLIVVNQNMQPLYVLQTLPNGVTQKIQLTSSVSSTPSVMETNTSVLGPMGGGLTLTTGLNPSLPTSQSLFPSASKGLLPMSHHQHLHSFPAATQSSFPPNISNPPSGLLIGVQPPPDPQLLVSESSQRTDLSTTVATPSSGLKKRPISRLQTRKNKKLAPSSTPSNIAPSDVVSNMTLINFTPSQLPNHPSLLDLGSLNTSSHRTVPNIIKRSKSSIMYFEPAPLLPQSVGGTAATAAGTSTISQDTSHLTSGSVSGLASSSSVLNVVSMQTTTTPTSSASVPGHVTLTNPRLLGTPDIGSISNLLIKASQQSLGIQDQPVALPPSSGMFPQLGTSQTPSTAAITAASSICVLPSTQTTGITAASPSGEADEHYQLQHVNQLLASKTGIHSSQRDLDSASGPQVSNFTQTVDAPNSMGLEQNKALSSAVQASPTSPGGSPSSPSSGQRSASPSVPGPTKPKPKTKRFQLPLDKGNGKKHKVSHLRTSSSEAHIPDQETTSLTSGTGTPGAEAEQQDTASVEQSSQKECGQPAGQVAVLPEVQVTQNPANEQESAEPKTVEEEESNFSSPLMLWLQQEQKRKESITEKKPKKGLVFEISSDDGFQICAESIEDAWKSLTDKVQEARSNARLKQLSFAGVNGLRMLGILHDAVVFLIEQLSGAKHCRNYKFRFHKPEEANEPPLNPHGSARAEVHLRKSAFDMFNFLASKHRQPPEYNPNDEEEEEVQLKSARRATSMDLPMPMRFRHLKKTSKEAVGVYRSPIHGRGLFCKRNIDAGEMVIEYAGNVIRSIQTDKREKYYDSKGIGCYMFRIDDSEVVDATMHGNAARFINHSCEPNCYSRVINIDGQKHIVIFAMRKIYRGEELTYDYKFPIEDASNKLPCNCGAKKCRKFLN

IC50 [nM] | Molecule
14 | CC(=O)N[C@@H](C)C(=O)N[C@@H](CCCNC(=N)N)C(=O)N[C@@H](Cc1c[nH]c2ccccc12)C(=O)N[C@H]1CCCC[C@@H](C(=O)N2CCC[C@H]2C(=O)N[C@@H](CCCN)C(=O)N[C@@H](CCCNC(=N)N)C(N)=O)NC(=O)C2(CCC2)NC(=O)[C@@H]2CCCN2C(=O)[C@H](Cc2cccc(F)c2)NC1=O
569 | CC(=O)N[C@@H](CO)C(=O)N[C@@H](C)C(=O)N[C@@H](CCCNC(=N)N)C(=O)N[C@@H](Cc1c[nH]c2ccccc12)C(=O)N[C@H]1CCCC[C@@H](C(=O)N2CCC[C@H]2C(=O)N[C@@H](CCCN)C(N)=O)NC(=O)C2(CCC2)NC(=O)[C@@H]2CCCN2C(=O)[C@H](Cc2cccc(F)c2)NC1=O
3590 | CC(=O)N[C@@H](CO)C(=O)N[C@@H](C)C(=O)N[C@@H](CCCNC(=N)N)C(=O)N[C@@H](Cc1c[nH]c2ccccc12)C(=O)N[C@@H](CCCNC(=N)N)C(=O)N[C@@H](Cc1ccccc1)C(=O)N1CCC[C@H]1C(=O)N[C@@H](C)C(=O)N[C@@H](CCCNC(=N)N)C(=O)N1CCC[C@H]1C(=O)NCC(=O)N[C@H](C(N)=O)[C@@H](C)O
1230 | CC(=O)N[C@@H](C)C(=O)N[C@@H](CCCNC(=N)N)C(=O)N[C@@H](Cc1c[nH]c2ccccc12)C(=O)N[C@H]1C/C=C\C[C@@H](C(=O)N2CCC[C@H]2C(=O)N[C@@H](CCCN)C(N)=O)NC(=O)C2(CCC2)NC(=O)[C@@H]2CCCN2C(=O)[C@H](Cc2cccc(F)c2)NC1=O (Ac-ARW[AllylGly][Phe(3-F)]P[Ac4c][AllylGly]P[Orn]-NH2; staple (Z) 4-8)

The next lines start with the molecule.

Molecule | IC50 [nM]
CC(=O)N[C@@H](C)C(=O)N[C@@H](CCCNC(=N)N)C(=O)N[C@@H](Cc1c[nH]c2ccccc12)C(=O)N[C@H]1CCCC[C@@H](C(=O)N2CCC[C@H]2C(=O)N[C@@H](CCCN)C(=O)N[C@@H](CCCNC(=N)N)C(=O)N[C@@H](CCCNC(=N)N)C(=O)N[C@@H](CCCNC(=N)N)C(N)=O)NC(=O)C2(CCC2)NC(=O)[C@@H]2CCCN2C(=O)[C@H](Cc2cccc(F)c2)NC1=O | 4.6
CC(=O)N[C@@H](C)C(=O)N[C@@H](CCCNC(=N)N)C(=O)N[C@@H](Cc1c[nH]c2ccccc12)C(=O)N[C@H]1C/C=C\C[C@@H](C(=O)N2CCC[C@H]2C(=O)N[C@@H](CCCN)C(=O)N[C@@H](CCCNC(=N)N)C(N)=O)NC(=O)C2(CCC2)NC(=O)[C@@H]2CCCN2C(=O)[C@H](Cc2cccc(F)c2)NC1=O (Ac-ARW[AllylGly][Phe(3-F)]P[Ac4c][AllylGly]P[Orn]R-NH2; staple (Z) 4-8) | 58
CC(=O)N[C@@H](C)C(=O)N[C@@H](CCCNC(=N)N)C(=O)N[C@@H](Cc1c[nH]c2ccccc12)C(=O)N[C@H]1C/C=C\C[C@@H](C(=O)N2CCC[C@H]2C(=O)N[C@@H](CCCN)C(=O)N[C@@H](CCCNC(=N)N)C(=O)N[C@@H](CCCNC(=N)N)C(=O)N[C@@H](CCCNC(=N)N)C(N)=O)NC(=O)C2(CCC2)NC(=O)[C@@H]2CCCN2C(=O)[C@H](Cc2cccc(F)c2)NC1=O (Ac-ARW[AllylGly][Phe(3-F)]P[Ac4c][AllylGly]P[Orn]RRR-NH2; staple (Z) 4-8) | 2.35
CC(=O)N[C@@H](CO)C(=O)N[C@@H](C)C(=O)N[C@@H](CCCNC(=N)N)C(=O)N[C@@H](Cc1c[nH]c2ccccc12)C(=O)N[C@H]1C/C=C\C[C@@H](C(=O)N2CCC[C@H]2C(=O)N[C@@H](CCCN)C(N)=O)NC(=O)C2(CCC2)NC(=O)[C@@H]2CCCN2C(=O)[C@H](Cc2cccc(F)c2)NC1=O (Ac-SARW[AllylGly][Phe(3-F)]P[Ac4c][AllylGly]P[Orn]-NH2; staple (Z) 5-9) | 777
Ac-RWRFPARPGTGRR-NH2 | 49

biological target: T1, Menin/Histone-lysine N-methyltransferase MLL; assay: Inhibition of Menin-MLL protein-protein interaction (unknown origin) preincubated for 1 hr in presence of FLSN-MBM1 peptide followed by compound addition and measured after 1 hr by fluorescence polarization assay

IC50 [nM] | Molecule
122 | CC(=O)N[C@@H](CO)C(=O)N[C@@H](C)C(=O)N[C@@H](CCCNC(=N)N)C(=O)N[C@@H](Cc1c[nH]c2ccccc12)C(=O)N[C@H]1CCCC[C@@H](C(=O)N2CCC[C@H]2C(=O)N[C@@H](CCCNC(=N)N)C(N)=O)NC(=O)[C@H](C)NC(=O)[C@@H]2CCCN2C(=O)[C@H](Cc2ccccc2)NC1=O
84 | CC(=O)N[C@@H](CO)C(=O)N[C@@H](C)C(=O)N[C@@H](CCCNC(=N)N)C(=O)N[C@@H](Cc1c[nH]c2ccccc12)C(=O)N[C@@H](CCCNC(=N)N)C(=O)N[C@@H](Cc1ccccc1)C(=O)N1CCC[C@H]1C(=O)N[C@@H](C)C(=O)N[C@@H](CCCNC(=N)N)C(=O)N1CCC[C@H]1C(=O)NCC(=O)N[C@H](C(N)=O)[C@@H](C)O
41000 | CC(=O)N[C@@H](CO)C(=O)N[C@@H](C)C(=O)N[C@@H](CCCNC(=N)N)C(=O)N[C@@H](Cc1c[nH]c2ccccc12)C(=O)N[C@H]1C/C=C\C[C@@H](C(=O)N2CCC[C@H]2C(=O)NCC(=O)N[C@H](C(N)=O)[C@@H](C)O)NC(=O)[C@H](C)NC(=O)[C@@H]2CCCN2C(=O)[C@H](Cc2ccccc2)NC1=O (Ac-SARW[AllylGly]FPA[AllylGly]PGT-NH2; staple (Z) 5-9)
770 | CC(=O)N[C@@H](CO)C(=O)N[C@@H](C)C(=O)N[C@@H](CCCNC(=N)N)C(=O)N[C@@H](Cc1c[nH]c2ccccc12)C(=O)N[C@H]1C/C=C\C[C@@H](C(=O)N2CCC[C@H]2C(=O)N[C@@H](CCCNC(=N)N)C(N)=O)NC(=O)[C@H](C)NC(=O)[C@@H]2CCCN2C(=O)[C@H](Cc2ccccc2)NC1=O (Ac-SARW[AllylGly]FPA[AllylGly]PR-NH2; staple (Z) 5-9)
281 | CC(=O)N[C@@H](CO)C(=O)N[C@@H](C)C(=O)N[C@@H](CCCNC(=N)N)C(=O)N[C@@H](Cc1c[nH]c2ccccc12)C(=O)N[C@H]1C/C=C\C[C@@H](C(=O)N2CCC[C@H]2C(=O)N[C@@H](CCCNC(=N)N)C(N)=O)NC(=O)[C@H](C)NC(=O)[C@@H]2CCCN2C(=O)[C@H](Cc2cccc(F)c2)NC1=O (Ac-SARW[AllylGly][Phe(3-F)]PA[AllylGly]PR-NH2; staple (Z) 5-9)
77700 | CC(=O)N[C@@H](Cc1c[nH]c2ccccc12)C(=O)N[C@H]1C/C=C\C[C@@H](C(=O)N2CCC[C@H]2C(=O)N[C@@H](CCCNC(=N)N)C(N)=O)NC(=O)[C@H](C)NC(=O)[C@@H]2CCCN2C(=O)[C@H](Cc2ccccc2)NC1=O (Ac-W[AllylGly]FPA[AllylGly]PR-NH2; staple (Z) 2-6)
61300 | Ac-SARWAFPAAPGT-NH2
1700 | Ac-SARWAFPAAPRT-NH2
1300 | Ac-SARWAFPAGPR-NH2

The remaining lines, values behind:

Molecule | IC50 [nM]
CC(=O)N[C@@H](CO)C(=O)N[C@@H](C)C(=O)N[C@@H](CCCNC(=N)N)C(=O)N[C@@H](Cc1c[nH]c2ccccc12)C(=O)N[C@H]1CCCCCC[C@@H](C(=O)N2CCC[C@H]2C(=O)N[C@@H](CCCNC(=N)N)C(N)=O)NC(=O)[C@H](C)NC(=O)[C@@H]2CCCN2C(=O)[C@H](Cc2ccccc2)NC1=O | 660
CC(=O)N[C@@H](C)C(=O)N[C@@H](CCCNC(=N)N)C(=O)N[C@@H](Cc1c[nH]c2ccccc12)C(=O)N[C@H]1C/C=C\C[C@@H](C(=O)N2CCC[C@H]2C(=O)N[C@@H](CCCNC(=N)N)C(N)=O)NC(=O)[C@H](C)NC(=O)[C@@H]2CCCN2C(=O)[C@H](Cc2ccccc2)NC1=O (Ac-ARW[AllylGly]FPA[AllylGly]PR-NH2; staple (Z) 4-8) | 151
CC(=O)N[C@@H](CCCNC(=N)N)C(=O)N[C@@H](Cc1c[nH]c2ccccc12)C(=O)N[C@H]1C/C=C\C[C@@H](C(=O)N2CCC[C@H]2C(=O)N[C@@H](CCCNC(=N)N)C(N)=O)NC(=O)[C@H](C)NC(=O)[C@@H]2CCCN2C(=O)[C@H](Cc2ccccc2)NC1=O (Ac-RW[AllylGly]FPA[AllylGly]PR-NH2; staple (Z) 3-7) | 372
CC(=O)N[C@@H](CO)C(=O)N[C@@H](C)C(=O)N[C@@H](CCCNC(=N)N)C(=O)N[C@@H](Cc1c[nH]c2ccccc12)C(=O)N[C@H]1C/C=C\C[C@@H](C(=O)N2CCC[C@H]2C(N)=O)NC(=O)[C@H](C)NC(=O)[C@@H]2CCCN2C(=O)[C@H](Cc2ccccc2)NC1=O (Ac-SARW[AllylGly]FPA[AllylGly]P-NH2; staple (Z) 5-9) | 6800
CC(=O)N[C@@H](CO)C(=O)N[C@@H](C)C(=O)N[C@@H](CCCNC(=N)N)C(=O)N[C@@H](Cc1c[nH]c2ccccc12)C(=O)N[C@H]1C/C=C\C[C@@H](C(=O)N2CCC[C@H]2C(=O)N[C@@H](CCCCN)C(N)=O)NC(=O)[C@H](C)NC(=O)[C@@H]2CCCN2C(=O)[C@H](Cc2ccccc2)NC1=O (Ac-SARW[AllylGly]FPA[AllylGly]PK-NH2; staple (Z) 5-9) | 1390
CC(=O)N[C@@H](CO)C(=O)N[C@@H](C)C(=O)N[C@@H](CCCNC(=N)N)C(=O)N[C@@H](Cc1c[nH]c2ccccc12)C(=O)N[C@H]1C/C=C\C[C@@H](C(=O)N2CCC[C@H]2C(=O)N[C@@H](CCCNC(=N)N)C(=O)N[C@H](C(N)=O)[C@@H](C)O)NC(=O)[C@H](C)NC(=O)[C@@H]2CCCN2C(=O)[C@H](Cc2ccccc2)NC1=O (Ac-SARW[AllylGly]FPA[AllylGly]PRT-NH2; staple (Z) 5-9) | 1800
CC(=O)N[C@@H](CO)C(=O)N[C@@H](C)C(=O)N[C@@H](CCCNC(=N)N)C(=O)N[C@@H](Cc1c[nH]c2ccccc12)C(=O)N[C@H]1C/C=C\C[C@@H](C(=O)N2CCC[C@H]2C(=O)N[C@@H](CCCN)C(N)=O)NC(=O)[C@H](C)NC(=O)[C@@H]2CCCN2C(=O)[C@H](Cc2ccccc2)NC1=O (Ac-SARW[AllylGly]FPA[AllylGly]P[Orn]-NH2; staple (Z) 5-9) | 142
CC(=O)N[C@@H](CO)C(=O)N[C@@H](C)C(=O)N[C@@H](CCCNC(=N)N)C(=O)N[C@@H](Cc1c[nH]c2ccccc12)C(=O)N[C@H]1C/C=C\CC[C@@H](C(=O)N2CCC[C@H]2C(=O)N[C@@H](CCCNC(=N)N)C(N)=O)NC(=O)[C@H](C)NC(=O)[C@@H]2CCCN2C(=O)[C@H](Cc2ccccc2)NC1=O (Ac-SARW[AllylGly]FPA[Hag]PR-NH2; staple (Z) 5-9) | 3000
CC(=O)N[C@@H](CO)C(=O)N[C@@H](C)C(=O)N[C@@H](CCCNC(=N)N)C(=O)N[C@@H](Cc1c[nH]c2ccccc12)C(=O)N[C@H]1C/C=C\C[C@@H](C(=O)N2CCC[C@H]2C(=O)N[C@@H](CCCNC(=N)N)C(N)=O)NC(=O)C2(CCC2)NC(=O)[C@@H]2CCCN2C(=O)[C@H](Cc2ccccc2)NC1=O (Ac-SARW[AllylGly]FP[Ac4c][AllylGly]PR-NH2; staple (Z) 5-9) | 83
CC(=O)N[C@@H](CO)C(=O)N[C@@H](C)C(=O)N[C@@H](CCCNC(=N)N)C(=O)N[C@@H](Cc1c[nH]c2ccccc12)C(=O)N[C@H]1CC/C=C\CC[C@@H](C(=O)N2CCC[C@H]2C(=O)N[C@@H](CCCNC(=N)N)C(N)=O)NC(=O)[C@H](C)NC(=O)[C@@H]2CCCN2C(=O)[C@H](Cc2ccccc2)NC1=O (Ac-SARW[Hag]FPA[Hag]PR-NH2; staple (Z) 5-9) | 1100
Ac-SARWAFPAAP-NH2 | 19000
